In ChEMBL document CHEMBL1157940, “Culicinin D, an antitumor peptaibol produced by the fungus Culicinomyces clavisporus, strain LL-12I252” (J Nat Prod, 2006):
In brackets after ≈: the same amount, converted by molar mass. Activity calls are given as the source filed them. The calls are words filed in the database; no cut-off is given here. Numbered stars: 1 amine (or outer) side, 2 acyl side, 3 side chain; on linkers, the order of the positions; unused ones are H or OH. Square brackets hold non-standard residues; d marks the D form. Peptide text beside a SMILES is read from it. * marks the point of attachment. X1 = CCC(=O)CC(O)CC(C)C[C@H](N[*:1])C(=O)[*:2]; X2 = CCCCCCC(C)C[C@@H](N[*:1])C(=O)[*:2]; Aib = CC(C)(N)C(=O)O; Butyryl = CCCC(=O)*; X3 = CC(CNCCO)N*; βAla = NCCC(=O)O

How the values were obtained:
[1] = Growth inhibition of PTEN deficient human MDA468 cells after 3 days by MTS assay; assay type: functional, cell-based; details: MDA-MB-468, 72 h
MDA-MB-435 = experiment: Growth inhibition of human MDA435 overexpressing PTEN after 3 days by MTS assay; assay type: functional; details: MDA-MB-435, 72 h
[2] = Effect on PI3K/AKT/mTOR pathway in PTEN deficient human MDA468 cells assessed as inhibition of S6K phosphorylation after 16 hrs by Western blot; assay type: cell-based; details: MDA-MB-468
[3] = Effect on PI3K/AKT/mTOR pathway in PTEN deficient human MDA468 cells assessed as inhibition of 4EBP1 phosphorylation after 16 hrs by Western blot; assay type: cell-based; details: MDA-MB-468
[4] = Effect on PI3K/AKT/mTOR pathway in PTEN deficient human MDA468 cells assessed as phosphorylated AKT level at 0.01 to 0.1 ug/mL after 16 hrs by Western blot; assay type: cell-based; details: MDA-MB-468
[5] = Effect on PI3K/AKT/mTOR pathway in PTEN deficient human MDA468 cells assessed as inhibition of cyclin D3 level at 0.01 to 0.1 ug/mL after 16 hrs by Western blot; assay type: cell-based; details: MDA-MB-468
[6] = Effect on PI3K/AKT/mTOR pathway in PTEN deficient human MDA468 cells assessed as increase in p27Kip1 level at 0.01 to 0.1 ug/mL after 16 hrs by Western blot; assay type: cell-based; details: MDA-MB-468
[7] = Effect on PI3K/AKT/mTOR pathway in PTEN deficient human MDA468 cells assessed as inhibition of S6 phosphorylation after 16 hrs by Western blot; assay type: cell-based; details: MDA-MB-468

For `CCCCCCC(C)C[C@@H](NC(=O)C(C)(C)NC(=O)C(C)(C)NC(=O)[C@H](CC(C)CC(O)CC(=O)CC)NC(=O)[C@@H]1CCCN1C(=O)CCC)C(=O)N[C@@H](CC(C)C)C(=O)NC(C)(C)C(=O)N[C@@H](CC(C)C)C(=O)NCCC(=O)NC(C)CNCCO` (stereo partly drawn) [CULICININ D] (Butyryl-P[X1][Aib][Aib][X2]L[Aib]L[βAla]-X3), the IC50 [1] was under 0.007 µg/mL, the IC50 (MDA-MB-435) was 1.6 µg/mL (≈ 1.3 µM) and the Activity [2] was “Dose-dependent effect”. For the same compound, the Activity [3] was “Dose-dependent effect”, the Activity [4] was “inactive” and the Activity [5] was “Active”. For the same compound, the Activity [6] was “Active” and the Activity [7] was “Dose-dependent effect”.
